Laboratory results: ChEMBL document CHEMBL1133900, “Improved synthesis and evaluation of 17-substituted aminoalkylgeldanamycin derivatives applicable to drug delivery systems” (Bioorg Med Chem Lett, 2001)

Test system: A2780
Assay: Compound was evaluated for antiproliferative activity against human ovarian carcinoma cell line A2780.
Type: functional, cell-based

Structure (SMILES): COC1=C2C[C@@H](C)C[C@H](OC)[C@H](O)[C@@H](C)/C=C(\C)[C@H](OC(N)=O)[C@@H](OC)/C=C\C=C(/C)C(=O)NC(=CC1=O)C2=O [GELDANAMYCIN]
- IC50: 3.4 nM

Structure (SMILES): CO[C@H]1/C=C\C=C(/C)C(=O)NC2=CC(=O)C(NCC(O)CN)=C(C[C@@H](C)C[C@H](OC)[C@H](O)[C@@H](C)/C=C(\C)[C@@H]1OC(N)=O)C2=O (stereo partly drawn)
- IC50: 234 nM

Structure (SMILES): CO[C@H]1/C=C\C=C(/C)C(=O)NC2=CC(=O)C(NCCCN)=C(C[C@@H](C)C[C@H](OC)[C@H](O)[C@@H](C)/C=C(\C)[C@@H]1OC(N)=O)C2=O
- IC50: 136 nM
